{
  "source": "patent US20060040872A1",
  "about": "“Calcium channel inhibitor” (SENMI EKISU CO., LTD, priority 2004, published 2006)",
  "type_in_all_cases": "cell-based",
  "key": {"[1]": {"test_system": "normal human aortic vessel smooth muscle cells (VSMC)", "assay": "Influence on calcium channel agonist (Bay K 8644) stimulation of VSMC growth (WST-8)", "conditions": "48 hours", "method": "Inflow of calcium ion which is downstream of Ang II stimulation showing a cell growth promoting action was investigated. […] Then 10 μM of WST-8 was added thereto and amount of water-soluble formazan produced by color reaction for 3 hours at 37° C. in a CO2 incubator was determined by absorbance at 450 nm whereupon cell growth was measured from the synthesized amount of DNA.\nThen 10 μM of WST-8 was added thereto and amount of water-soluble formazan produced by color reaction for 3 hours at 37° C. in a CO2 incubator was determined by absorbance at 450 nm whereby cell growth was measured from synthesized amount of DNA."}, "[2]": {"test_system": "normal human aortic vessel smooth muscle cells (VSMC)", "assay": "Influence of VY on Ang II receptor: VSMC growth with Ang II and saralasin (WST-8)", "conditions": "48 hours, FIG. 17", "method": "(§1) As to cells, normal human aortic vessel smooth muscle cells (VSMC; Cyro AOSMC (trade name) manufactured by Sanko Junyaku Co.) were used while, as to VY, valyl-tyrosine which was chemically synthesized was used and a calcium channel inhibiting action by VY was confirmed.\nInfluence of VY on Ang II receptor AT1 existing on the surface of VSMC was investigated. That is, VSMC was pre-incubated in a serum-free medium for 24 hours on a 96-well plate and incubation was conducted for 48 hours after 1 μM of Ang II was added, 10 μM of saralasin which is an Ang II antagonist was added, each 1 μM of Ang II and saralasin were added or each 1 μM of Ang II and saralasin and 1 mM of VY were added. Then 10 μM of WST-8 was added thereto and amount of water-soluble formazan formed by color reaction for 3 hours at 37° C. in a CO2 incubator was determined by absorbance at 450 nm whereby cell growth was measured from the synthesized amount of DNA. The result which was made into a graph is FIG. 17 (effect of VY and saralasin (Ang II antagonist) on Ang II stimulation)."}, "[3]": {"test_system": "normal human aortic vessel smooth muscle cells (VSMC)", "assay": "VY toxicity test on VSMC (WST-8)", "conditions": "0 mM or 1 mM VY; 48 hours; serum-free; WST-8 absorbance at 450 nm; FIG. 13", "method": "as §1\nIn order to check the toxicity of VY, VSMC was pre-incubated for 24 hours on a serum-free medium on a 96-well plate, 0 mM or 1 mM of VY was added thereto and incubation was conducted for 48 hours. To this was added a solution containing 10 μM of WST-8 (2-(2-methoxy-4-nitrophenyl)-3-(4-nitrophenyl)-5-(2,4-disulfophenyl)-2H-tetrazolium (Cell Counting Kit-8; manufactured by Dojin Kagaku CO.)), color reaction was conducted in a CO2 incubator at 37° C. for 3 hours and the amount of the resulting water-soluble formazan was determined by absorbance at 450 nm where cell growth was measured from the synthesized amount of DNA. The result which was made into a graph is FIG. 13 (VY toxicity test). As a result, it was noted that there was no difference between their cell growths and that VY is non-toxic."}, "[4]": {"test_system": "normal human aortic vessel smooth muscle cells (VSMC)", "assay": "Influence on VSMC growth by Ang II stimulation (WST-8)", "conditions": "48 hours", "method": "as §1\nWhen Ang II (angiotensin II) is added to an incubated liquid of VSMC, cell growth thereof is promoted. It has been known to be due to the fact that Ang II is bonded to an AT1 receptor existing on the surface of VSMC, the bonding signal flows in the cells and, as a result, calcium channel opens and calcium ion flows into the cells. Such a mechanism was utilized to conduct the following experiment.\nVSMC was pre-incubated for 24 hours on a serum-free medium on a 96-well plate and three kinds of samples—a control to which no additive was added, a sample to which only Ang II was added in a concentration of 1 μM (Ang II (+)) and a sample to which Ang II and VY were added in concentrations of 1 μM and 1 mM, respectively (Ang II(+)VY(+))—were incubated for 48 hours. Then 10 μM of WST-8 was added thereto and amount of water-soluble formazan resulted by color reaction at 37° C. for 3 hours in a CO2 incubator was measured from absorbance at 450 nm whereupon cell growth was measured form the synthesized amount of DNA. The result which was made into a graph is FIG. 14 (effect of VY on Ang II stimulation).\nFurther, cell growth when concentration of VY added by the same method was made 0 μM, 1 μM, 10 μM, 100 μM and 1 mM was measured. That is, VSMC was pre-incubated on a serum-free medium for 24 hours on a 96-well plate and six kinds of samples—a control where nothing was added and five samples where Ang II was added in a concentration of 1 μM and VY was further added in concentrations 0 μM, 1 μM, 10 μM, 100 μM and 1 mM—were incubated for 48 hours. Then 10 μM WST-8 was added thereto and amount of water-soluble formazan produced by color reaction at 37° C. for 3 hours in a CO2 incubator was determined from absorbance at 450 nm whereupon cell growth was measured from the synthesized amount of DNA. The result which was made into a graph is FIG. 15 (dependency of VY concentration to VSMC growth by Ang II stimulation).\nVSMC was pre-incubated in a serum-free-medium for 24 hours on a 96-well plate, then 1 μM of captopril which is an ACE inhibitor was added thereto and incubation was conducted for 48 hours. Then 10 μM WST-8 was added thereto and amount of water-soluble formazan produced by color reaction for 3 hours was determined from absorbance at 450 nm whereupon cell growth was measured from synthesized amount of DNA. The result which was made into a graph is FIG. 16 (influence of ACE inhibitor on Ang II stimulation)."}, "[5]": {"test_system": "normal human aortic vessel smooth muscle cells (VSMC)", "assay": "Influence of VY on VSMC growth in the presence of 5% FBS (Trypan Blue living cell count)", "conditions": "VY 0, 50 and 100 μM, 5 v/v % FBS medium, 5 days at 37° C., FIG. 12", "method": "as §1\nVSMC (1×10^5 cell/ml) was pre-incubated for 24 hours in a serum-free medium and transferred to a medium containing 5 v/v % of FBS (fetal bovine serum), 1 w/v % of hEGF (human epidermal growth factor) and 1 w/v % of hEGF-β, then VY was added thereto so as to make its concentrations 0, 50 and 100 μM and incubation of the resulting mixtures was conducted for 5 days at 37° C. in a CO2 incubator. This was stained with Trypan Blue and living cells were counted by a blood corpuscle counter. The result which is made into a graph is FIG. 12 (effect of addition of VY in the presence of 5% FBS)."}},
  "note": "Where a SMILES comes first, the peptide text is derived from it.",
  "data": [
    {"molecule": "CC(C)[C@H](N)C(=O)N[C@@H](Cc1ccc(O)cc1)C(=O)O", "note": "[VY, valyl-tyrosine] (H-Val-Tyr-OH)", "values": [
      {"measurement": "cell growth under Bay K 8644 stimulation", "setting": "[1]; 1 μM of Bay K 8644 and 1 mM of VY, FIG. 18", "result": "suppressed cell growth promoting activity as same as in the case of addition of verapamil"},
      {"measurement": "dependency on concentration of VY to Bay K 8644 stimulation (cell growth)", "setting": "[1]; 1 μM of Bay K 8644 with 0, 10 μM, 100 μM or 1 mM of VY, FIG. 19", "result": "suppressive effect to VSMC growth by Bay K 8644 stimulation in a concentration-dependent manner"},
      {"measurement": "cell growth", "setting": "[2]; each 1 μM of Ang II and saralasin and 1 mM of VY", "result": "no growth promoting effect was noted"},
      {"measurement": "toxicity (cell growth)", "setting": "[3]", "result": "non-toxic"},
      {"measurement": "cell growth under Ang II stimulation", "setting": "[4]; Ang II 1 μM and VY 1 mM, FIG. 14", "result": "cell growth was not promoted"},
      {"measurement": "dependency of VY concentration to VSMC growth by Ang II stimulation", "setting": "[4]; Ang II 1 μM, VY 0 μM, 1 μM, 10 μM, 100 μM and 1 mM, FIG. 15", "result": "suppressive effect to the growth of VSMC by Ang II stimulation in a concentration-depending manner"},
      {"measurement": "cell growth (living cells counted)", "setting": "[5]", "result": "cell growth was suppressed in proportion to the added VY concentration"}
    ]},
    {"molecule": "COC(=O)C1=C(C)NC(C)=C([N+](=O)[O-])C1c1ccccc1C(F)(F)F", "note": "(stereo not shown) [Bay K 8644, reference compound]", "values": [
      {"measurement": "cell growth", "setting": "[1]; Bay K 8644 alone 1 μM, FIG. 18", "result": "cell growth was promoted"}
    ]},
    {"molecule": "C[C@H](CS)C(=O)N1CCC[C@H]1C(=O)O", "note": "[captopril, reference compound]", "values": [
      {"measurement": "influence of ACE inhibitor on Ang II stimulation (cell growth)", "setting": "[4]; captopril 1 μM, FIG. 16", "result": "did not show a suppressive action to Ang II stimulation"}
    ]},
    {"molecule": "COc1ccc(CCN(C)CCCC(C#N)(c2ccc(OC)c(OC)c2)C(C)C)cc1OC", "note": "(stereo not shown) [verapamil, reference compound]", "values": [
      {"measurement": "cell growth under Bay K 8644 stimulation", "setting": "[1]; each 1 μM of Bay K 8644 and verapamil, FIG. 18", "result": "suppressed the cell growth promoting activity"}
    ]},
    {"molecule": "CNCC(=O)N[C@@H](CCCN=C(N)N)C(=O)N[C@H](C(=O)N[C@@H](Cc1ccc(O)cc1)C(=O)N[C@H](C(=O)N[C@@H](Cc1cnc[nH]1)C(=O)N1CCC[C@H]1C(=O)N[C@@H](C)C(=O)O)C(C)C)C(C)C", "note": "[saralasin]", "values": [
      {"measurement": "cell growth", "setting": "[2]; each 1 μM of Ang II and saralasin", "result": "the growth promotion effect was weak as compared with the case of sole use of saralasin"},
      {"measurement": "cell growth", "setting": "[2]; saralasin alone, 10 μM", "result": "cell growth was promoted although that was not so significant as in the case of addition of Ang II"}
    ]},
    {"molecule": "angiotensin II (DRVYIHPF; Angiotensin-2; UniProt P01019 25-32, looked up) [Ang II, angiotensin II, promotes VSMC growth via AT1 receptor, reference compound]", "values": [
      {"measurement": "cell growth", "setting": "[4]; Ang II alone 1 μM, FIG. 14", "result": "growth was strongly promoted"}
    ]}
  ]
}
